The target in series [1] is T1, HCV NS5B genotype 1b (Hepatitis C virus genotype 1b, UniProt Q9WMX2).
T1 construct: The protein was expressed with a 21 amino acid C-terminal deletion to remove transmembrane domain; expressed in transfected cells; host or cells: Huh-7
As to the kind of experiment: 3D-SCREEN assay (NS5B 3D-Screen platform, luciferase reporter gene). The note with it: EC50_3DS_NS5B. It is filed as cell-based. From the text:
cDNA encoding HCV NS5B genotype 1b, was cloned in frame with Gal4-DNA Binding Domain. The protein was expressed with a 21 amino acid C-terminal deletion to remove transmembrane domain. Expression of NS5BΔ21/Gal4 DBD fusion protein was under control of SV40 early promoter. 3D-Sensor peptide was cloned in frame with VP16 activation domain. Expression of 3D-Sensor/VP16 AD fusion protein was under control of CMV promoter. Expression of the firefly luciferase reporter gene was inducible by the [Target protein/conformation sensitive peptide/VP16AD] complex.
It is a single-target, cell based assay. Briefly, expression of a reporter gene depends on the interaction of a short peptide, thereafter named 3D-Sensor, and native conformation of the target protein. Whenever the conformation of the target protein is modified, interaction between 3D-sensor and target protein is disrupted and reporter gene is not expressed anymore. Conformation modifiers are identified by loss of expression of reporter gene. NS5B 3D-Screen platform was generated in Huh-7 cell lines by transient transfection of three expression vectors encoding respectively
(i) HCV NS5BΔ21/Gal4-DBD fusion protein
(ii) the 3D-sensor peptide I4/VP16 fusion protein
(iii) the firefly luciferase reporter gene
Huh-7 cells were dissociated the day before transfection and seeded in T175 flasks at a density of 10^7 cells in 30 ml culture medium. Equimolar ratios of vectors were transfected in cell according to optimized jetPEI transfection protocol (PolyPlus Transfection, Illkirch, France) and 10 μg total DNA/10^6 cells. Transfection was performed for 2 hours at 37° C. and 5% CO2 in a humidified atmosphere. After two hours cells were dissociated and seeded in 96 wells plates at a density of 25,000 cells per well and 90 μl culture medium. 10 μl of compounds to be tested were added 2 hours after seeding. Final concentration of DMSO was 1%. Cells were incubated in the presence of compounds for 24 hours after which expression of firefly luciferase reporter gene was quantified. Briefly, culture medium was removed and cells were lysed by addition of 100 μl of lysis buffer containing 125 mM Tris Phosphate ph 7.8, 10 mM EDTA, 5 mM DTT, 50% glycerol and 5% Triton. Plates were vortexed 10 min at 1300 rpm. Cell lysat was transferred in OpaqueWhite Assay 96 well Flat Bottom plates. 100 μl of luciferin solution 1× were added to each well. Luciferin solution contained 40 mM Tris Phosphate ph 7.8, 0.2 mM EDTA, 67 mM DTT, 2.14 mM MgCl2, 5.4 mM MgSO4, 4.7×10^−4 M luciferin, 5.3×10^−4 M ATP and 2.7×10^−4 M Acetyl co enzyme A. Luminescence was immediately measured with Berthold Microlumat Plus LB 96V luminometer with an integration of 0.5 sec. Inhibition was calculated using the formula: % inhibition=(1−(read/average max))*100. Average max=signal in absence of compound
(In general: Reporter assays use an easily measured gene product as a stand-in for the process of interest.)

[2] abbreviates: Table 1, 3D-SCREEN assay results, Huh-7 cells, 24 hours with compound, firefly luciferase reporter.
The mark [3] stands for this setting: Table 2, titled Replicon assay results.

pEC50: −log10 of the molar value. Some results are limits rather than exact numbers.

With `Cc1ccc(C(=O)C2=C(O)C(=O)N(c3ccc(C)nn3)C2c2ccc(C(F)(F)F)cc2)cc1` (stereo not shown) [Example 18, 3-hydroxy-4-(4-methyl-benzoyl)-1-(6-methyl-pyridazin-3-yl)-5-(4-trifluoromethyl-phenyl)-1,5-dihydro-pyrrol-2-one], the melting point (usually the temperature of the solid-liquid transition) was found to be 278 °C. Besides, in series [1] (setting [2]), the pEC50 (as a rule, −log10 of the EC50, conventionally taken in molar units) is 6.00.

Consider `COc1ccc(C(=O)C2=C(O)C(=O)N(c3ccc(C)nn3)C2c2ccc(OC(F)(F)F)cc2)cc1` (stereo not shown) [Example 23, 3-hydroxy-4-(4-methoxy-benzoyl)-1-(6-methyl-pyridazin-3-yl)-5-(4-trifluoromethoxy-phenyl)-1,5-dihydro-pyrrol-2-one], for which the melting point turned out to be 265 °C. In addition, the pEC50 in series [1] (setting [2]) is 6.00.

`COc1ccc(C2C(C(=O)c3ccc(OC(F)(F)F)cc3)=C(O)C(=O)N2c2ccc(C)nn2)cc1` (stereo not shown) [Example 24, 3-hydroxy-5-(4-methoxy-phenyl)-1-(6-methyl-pyridazin-3-yl)-4-(4-trifluoromethoxy-benzoyl)-1,5-dihydro-pyrrol-2-one] had a melting point of 279 °C. The pEC50 in series [1] (setting [2]) was 5.52.

Compound `Cc1ccc(C(=O)C2=C(O)C(=O)N(c3ccc(C)nn3)C2c2ccc(OC(C)C)cc2)cc1` (stereo not shown) [Example 33, 3-hydroxy-5-(4-isopropoxy-phenyl)-4-(4-methyl-benzoyl)-1-(6-methyl-pyridazin-3-yl)-1,5-dihydro-pyrrol-2-one] returned a melting point of 268 to 272 °C. Further, the pEC50 in series [1] (setting [2]) was 5.70.

`Cc1ccc(C(=O)C2=C(O)C(=O)N(c3ccc(N(C)C)nn3)C2c2ccc(C(C)C)cc2)cc1` (stereo not shown) [Example 37, 1-(6-dimethylamino-pyridazin-3-yl)-3-hydroxy-5-(4-isopropyl-phenyl)-4-(4-methyl-benzoyl)-1,5-dihydro-pyrrol-2-one] registered a melting point of 281 °C. The pEC50 in series [1] (setting [2]) was 5.05.

For the compound `Cc1ccc(C(=O)C2=C(O)C(=O)N(c3ccc(C)nn3)C2c2cccc(OC(C)C)c2)cc1` (stereo not shown) [Example 38, 3-hydroxy-5-(3-isopropoxy-phenyl)-4-(4-methyl-benzoyl)-1-(6-methyl-pyridazin-3-yl)-1,5-dihydro-pyrrol-2-one], the melting point fell in the range of 243 to 245 °C. The pEC50 in series [1] (setting [2]) was 5.00.

Compound `Cc1ccc(C(=O)C2=C(O)C(=O)N(c3ccc(C)cn3)C2c2ccc(C(C)C)cc2)cc1` (stereo not shown) [Example 41, 3-hydroxy-5-(4-isopropyl-phenyl)-4-(4-methyl-benzoyl)-1-(5-methyl-pyridin-2-yl)-1,5-dihydro-pyrrol-2-one] showed a melting point of 259 to 261 °C. For the same compound, the pEC50 in series [1] (setting [2]) is 5.15.

Turning to `Cc1ccc(N2C(=O)C(O)=C(C(=O)c3ccc(C(C)C)cc3)C2c2ccc(N3CCOCC3)cc2)nn1` (stereo not shown) [Example 58, 3-hydroxy-4-(4-isopropyl-benzoyl)-1-(6-methyl-pyridazin-3-yl)-5-(4-morpholin-4-yl-phenyl)-1,5-dihydro-pyrrol-2-one], the melting point is 293 to 294 °C. The pEC50 in series [1] (setting [2]) is 5.30.

For the compound `Cc1ccc(N2C(=O)C(O)=C(C(=O)c3ccc(C(C)C)cc3)C2c2ccc(C(C)C)cc2)cn1.Cl` (stereo not shown) [Example 66, 5-[3-hydroxy-4-(4-isopropyl-benzoyl)-5-(4-isopropyl-phenyl)-2-oxo-2,5-dihydro-pyrrol-1-yl]-2-methyl-pyridinium; chloride], the melting point was found to be 165 °C. The pEC50 in series [1] (setting [2]) is 5.70.

`COCCOc1ccc(C(=O)C2=C(O)C(=O)N(c3ccc(C)nn3)C2c2ccc(OC(F)(F)F)cc2)cc1` (stereo not shown) [Example 85, 3-Hydroxy-4-[4-(2-methoxy-ethoxy)-benzoyl]-1-(6-methyl-pyridazin-3-yl)-5-(4-trifluoromethoxy-phenyl)-1,5-dihydro-pyrrol-2-one] returned a melting point of 216 to 219 °C. In series [1] (setting [3]), this compound gave a pEC50 of more than 5.00.

On to `Cc1ccc(N2C(=O)C(O)=C(C(=O)c3ccc(C(C)C)cc3)C2c2ccc(Cl)cc2)nn1` (stereo not shown) [Example 87, 5-(4-chloro-phenyl)-3-hydroxy-4-(4-isopropyl-benzoyl)-1-(6-methyl-pyridazin-3-yl)-1,5-dihydro-pyrrol-2-one], for which the melting point fell in the range of 258 to 260 °C. Besides, the pEC50 in series [1] (setting [3]) is more than 5.00.

In turn, `CCOc1ccc(C(=O)C2=C(O)C(=O)N(c3ccc(C)nn3)C2c2ccc(OC(F)(F)F)cc2)cc1` (stereo not shown) [Example 101, 4-(4-ethoxy-benzoyl)-3-hydroxy-1-(6-methyl-pyridazin-3-yl)-5-(4-trifluoromethoxy-phenyl)-1,5-dihydro-pyrrol-2-one] came in with a melting point of 255 to 257 °C. In series [1] (setting [3]), the pEC50 is more than 5.00.

For `Cc1ccc(N2C(=O)C(O)=C(C(=O)c3ccc(C(C)C)cc3)C2c2ccc(OC(C)C)cn2)nn1` (stereo not shown) [Example 121, 3-hydroxy-5-(5-isopropoxy-pyridin-2-yl)-4-(4-isopropyl-benzoyl)-1-(6-methyl-pyridazin-3-yl)-1,5-dihydro-pyrrol-2-one], the melting point fell in the range of 243 to 245 °C. Also, in series [1] (setting [3]), the pEC50 was more than 5.00.

Consider `Cc1ccc(N2C(=O)C(O)=C(C(=O)c3ccc(C(F)(F)F)nc3)C2c2ccc(OC(F)(F)F)cc2)nn1` (stereo not shown) [Example 126, 3-hydroxy-1-(6-methyl-pyridazin-3-yl)-5-(4-trifluoromethoxy-phenyl)-4-(6-trifluoromethyl-pyridine-3-carbonyl)-1,5-dihydro-pyrrol-2-one], for which the melting point was 172 °C. This compound also showed a pEC50 in series [1] (setting [3]) of more than 5.00.

In turn, `Cc1ccc(N2C(=O)C(O)=C(C(=O)c3ccc(C(C)C)cc3)C2c2ccc(N(C)C)cc2)nn1` (stereo not shown) [Example 135, 5-(4-dimethylamino-phenyl)-3-hydroxy-4-(4-isopropyl-benzoyl)-1-(6-methyl-pyridazin-3-yl)-1,5-dihydro-pyrrol-2-one] returned a melting point of 283 to 286 °C. The compound also gave a pEC50 in series [1] (setting [3]) of more than 5.00.

`Cc1ccc(N2C(=O)C(O)=C(C(=O)c3ccc(C(C)C)cc3)C2c2ccc(Cn3nccn3)cc2)nn1` (stereo not shown) [Example 147, 3-hydroxy-4-(4-isopropyl-benzoyl)-1-(6-methyl-pyridazin-3-yl)-5-(4-[1,2,3]triazol-2-ylmethyl-phenyl)-1,5-dihydro-pyrrol-2-one]: the melting point came out at 285 °C. In series [1] (setting [3]), this compound gave a pEC50 of more than 5.00.

On to `Cc1ccc(N2C(=O)C(O)=C(C(=O)c3ccc(C(C)C)cc3)[C@@H]2c2ccc(C(F)(F)F)cc2)nn1` [Example 190, 3-hydroxy-4-(4-isopropyl-benzoyl)-1-(6-methyl-pyridazin-3-yl)-5(S)-(4-trifluoromethyl-phenyl)-1,5-dihydro-pyrrol-2-one], for which the melting point worked out at 252 °C. This compound showed a pEC50 in series [1] (setting [3]) of more than 5.00.

(Values after US20120128630A1, “1-(6 MEMBERS AZO-HETEROCYCLIC)-PYRROLIN-2-ONE COMPOUNDS AS INHIBITORS OF HEPATITIS C NS5B POLYMERASE, THE PHARAMACEUTICAL COMPOSITION THEREOF AND THEIR THERAPEUTIC USE” (priority 2009, published 2012).)
